{"source": "ChEMBL document CHEMBL4507283", "about": "“Data for DCP probe BI-1935” (2021)", "key": {"[1]": {"target": "Histamine H3 receptor (Homo sapiens) (UniProt Q9Y5N1)", "conditions": "Compound concentration 10.0 uM; call rule not given here"}, "[2]": {"species_on_record": "Rattus norvegicus", "conditions": "Compound concentration 10.0 uM"}, "[3]": {"target": "5-hydroxytryptamine receptor 1E (Homo sapiens) (UniProt P28566)", "conditions": "Compound concentration 10.0 uM"}, "[4]": {"target": "Sodium-dependent noradrenaline transporter (Homo sapiens) (UniProt P23975)", "conditions": "Compound concentration 10.0 uM"}, "[5]": {"target": "T1, Sodium-dependent dopamine transporter (Homo sapiens, UniProt Q01959)", "T1 sequence (Q01959 whole entry)": "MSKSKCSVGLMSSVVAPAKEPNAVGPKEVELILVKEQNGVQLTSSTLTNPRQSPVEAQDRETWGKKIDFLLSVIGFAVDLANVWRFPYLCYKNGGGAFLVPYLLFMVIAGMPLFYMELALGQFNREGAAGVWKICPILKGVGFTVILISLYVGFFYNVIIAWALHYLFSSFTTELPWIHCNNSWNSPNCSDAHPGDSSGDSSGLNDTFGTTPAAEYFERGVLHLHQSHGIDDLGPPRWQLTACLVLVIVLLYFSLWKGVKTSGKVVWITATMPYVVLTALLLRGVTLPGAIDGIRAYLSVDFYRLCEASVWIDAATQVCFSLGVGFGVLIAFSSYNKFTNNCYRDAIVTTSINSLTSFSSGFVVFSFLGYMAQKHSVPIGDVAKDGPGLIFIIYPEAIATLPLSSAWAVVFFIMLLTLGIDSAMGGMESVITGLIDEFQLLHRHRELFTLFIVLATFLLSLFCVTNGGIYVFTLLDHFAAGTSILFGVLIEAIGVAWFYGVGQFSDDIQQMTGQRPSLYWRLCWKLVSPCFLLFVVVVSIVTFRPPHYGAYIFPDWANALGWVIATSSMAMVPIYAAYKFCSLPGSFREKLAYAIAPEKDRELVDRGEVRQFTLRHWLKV", "assay": "GPCRScan assay: inhibition of DAT", "design": "radioligand conc. used [nm] 3.6 – 16.0, parental cells stable HEK"}, "[6]": {"target": "Alpha-1D adrenergic receptor (Homo sapiens) (UniProt P25100)", "sequence (P25100 whole entry)": "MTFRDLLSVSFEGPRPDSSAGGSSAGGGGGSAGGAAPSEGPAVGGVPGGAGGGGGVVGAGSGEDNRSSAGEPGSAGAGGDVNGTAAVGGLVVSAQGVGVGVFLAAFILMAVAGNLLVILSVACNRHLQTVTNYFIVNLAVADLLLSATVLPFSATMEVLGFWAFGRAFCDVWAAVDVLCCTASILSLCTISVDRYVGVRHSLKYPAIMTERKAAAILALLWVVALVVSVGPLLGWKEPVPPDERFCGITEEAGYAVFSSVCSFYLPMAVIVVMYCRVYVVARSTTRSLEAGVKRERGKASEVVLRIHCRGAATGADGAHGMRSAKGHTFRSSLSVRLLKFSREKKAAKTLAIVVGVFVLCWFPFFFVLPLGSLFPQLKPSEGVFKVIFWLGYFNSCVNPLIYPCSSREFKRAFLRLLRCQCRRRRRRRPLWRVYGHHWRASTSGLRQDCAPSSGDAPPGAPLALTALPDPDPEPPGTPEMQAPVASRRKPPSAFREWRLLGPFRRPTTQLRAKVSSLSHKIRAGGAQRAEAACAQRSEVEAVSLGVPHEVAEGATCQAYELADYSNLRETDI", "conditions": "Compound concentration 10.0 uM"}, "[7]": {"target": "Beta-3 adrenergic receptor (Homo sapiens) (UniProt P13945)", "conditions": "Compound concentration 10.0 uM"}, "[8]": {"target": "D(3) dopamine receptor (Homo sapiens) (UniProt P35462)", "sequence (P35462 whole entry)": "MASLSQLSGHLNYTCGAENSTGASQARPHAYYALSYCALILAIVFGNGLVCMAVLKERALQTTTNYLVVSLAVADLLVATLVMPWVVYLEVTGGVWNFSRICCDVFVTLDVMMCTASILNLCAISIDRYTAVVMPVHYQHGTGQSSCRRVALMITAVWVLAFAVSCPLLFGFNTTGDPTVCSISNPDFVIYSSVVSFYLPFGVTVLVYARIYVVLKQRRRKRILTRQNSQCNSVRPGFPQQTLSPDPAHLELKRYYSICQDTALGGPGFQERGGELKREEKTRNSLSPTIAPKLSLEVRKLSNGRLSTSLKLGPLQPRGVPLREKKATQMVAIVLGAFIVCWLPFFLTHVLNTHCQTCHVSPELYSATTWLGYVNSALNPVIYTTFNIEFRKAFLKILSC", "conditions": "Compound concentration 10.0 uM"}, "[9]": {"target": "T2, 5-hydroxytryptamine receptor 3A (Homo sapiens) (UniProt P46098)", "T2 sequence (whole entry)": "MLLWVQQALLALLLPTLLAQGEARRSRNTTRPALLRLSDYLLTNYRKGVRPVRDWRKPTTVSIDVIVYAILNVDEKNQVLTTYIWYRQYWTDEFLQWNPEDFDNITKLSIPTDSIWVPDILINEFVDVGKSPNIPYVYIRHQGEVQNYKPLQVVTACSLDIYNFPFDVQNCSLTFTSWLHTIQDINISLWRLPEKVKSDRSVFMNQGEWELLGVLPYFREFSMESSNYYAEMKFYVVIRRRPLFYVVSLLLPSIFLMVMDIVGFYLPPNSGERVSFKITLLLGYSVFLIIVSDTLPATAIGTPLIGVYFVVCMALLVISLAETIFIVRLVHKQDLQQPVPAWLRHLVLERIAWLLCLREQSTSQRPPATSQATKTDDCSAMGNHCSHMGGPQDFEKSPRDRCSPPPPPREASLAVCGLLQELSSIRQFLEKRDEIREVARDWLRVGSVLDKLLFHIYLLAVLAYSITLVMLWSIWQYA", "conditions": "Compound concentration 10.0 uM"}, "[10]": {"target": "Histamine H2 receptor (Homo sapiens) (UniProt P25021)", "conditions": "Compound concentration 10.0 uM"}, "[11]": {"target": "Kappa-type opioid receptor (Homo sapiens) (UniProt P41145)", "conditions": "Compound concentration 10.0 uM"}, "[12]": {"target": "Muscarinic acetylcholine receptor M1 (Homo sapiens) (UniProt P11229)", "sequence (P11229 whole entry)": "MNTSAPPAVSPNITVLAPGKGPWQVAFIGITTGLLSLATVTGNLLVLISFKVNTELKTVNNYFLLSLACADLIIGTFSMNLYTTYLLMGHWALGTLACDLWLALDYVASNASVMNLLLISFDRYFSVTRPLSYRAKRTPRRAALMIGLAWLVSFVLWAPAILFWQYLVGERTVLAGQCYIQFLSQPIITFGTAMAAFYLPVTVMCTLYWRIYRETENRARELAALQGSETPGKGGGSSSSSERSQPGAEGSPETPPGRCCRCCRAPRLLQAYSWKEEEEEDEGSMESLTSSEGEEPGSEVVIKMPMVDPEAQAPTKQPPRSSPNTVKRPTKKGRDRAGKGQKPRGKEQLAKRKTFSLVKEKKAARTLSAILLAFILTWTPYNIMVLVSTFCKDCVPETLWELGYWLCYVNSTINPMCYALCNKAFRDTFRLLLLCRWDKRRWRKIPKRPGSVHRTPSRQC", "conditions": "Compound concentration 10.0 uM"}, "[13]": {"target": "Mu-type opioid receptor (Homo sapiens) (UniProt P35372)", "conditions": "Compound concentration 10.0 uM"}, "[14]": {"target": "Alpha-1A adrenergic receptor (Homo sapiens) (UniProt P35348)", "conditions": "Compound concentration 10.0 uM"}, "[15]": {"target": "Muscarinic acetylcholine receptor M3 (Homo sapiens) (UniProt P20309)", "sequence (P20309 whole entry, looked up)": "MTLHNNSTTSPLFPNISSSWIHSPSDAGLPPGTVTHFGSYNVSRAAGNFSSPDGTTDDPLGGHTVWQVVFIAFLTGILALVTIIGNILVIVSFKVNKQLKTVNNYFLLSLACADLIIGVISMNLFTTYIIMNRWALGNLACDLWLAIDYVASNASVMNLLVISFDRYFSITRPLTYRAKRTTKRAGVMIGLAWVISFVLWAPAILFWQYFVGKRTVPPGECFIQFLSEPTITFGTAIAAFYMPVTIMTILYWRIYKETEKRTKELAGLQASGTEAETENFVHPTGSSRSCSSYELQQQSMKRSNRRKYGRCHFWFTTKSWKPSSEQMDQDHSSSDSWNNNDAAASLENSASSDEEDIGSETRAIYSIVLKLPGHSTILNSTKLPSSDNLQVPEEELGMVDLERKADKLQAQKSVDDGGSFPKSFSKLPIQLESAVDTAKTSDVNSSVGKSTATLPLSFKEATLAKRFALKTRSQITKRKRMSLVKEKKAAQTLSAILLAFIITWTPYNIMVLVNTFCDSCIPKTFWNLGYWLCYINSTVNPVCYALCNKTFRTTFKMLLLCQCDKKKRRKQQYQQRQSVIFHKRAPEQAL", "conditions": "Compound concentration 10.0 uM"}, "[16]": {"target": "T1, Sodium-dependent dopamine transporter", "conditions": "Compound concentration 10.0 uM"}, "[17]": {"target": "Delta-type opioid receptor (Homo sapiens) (UniProt P41143)", "conditions": "Compound concentration 10.0 uM"}, "[18]": {"target": "T3, Bifunctional epoxide hydrolase 2 (Homo sapiens, UniProt P34913)", "T3 sequence (P34913 whole entry)": "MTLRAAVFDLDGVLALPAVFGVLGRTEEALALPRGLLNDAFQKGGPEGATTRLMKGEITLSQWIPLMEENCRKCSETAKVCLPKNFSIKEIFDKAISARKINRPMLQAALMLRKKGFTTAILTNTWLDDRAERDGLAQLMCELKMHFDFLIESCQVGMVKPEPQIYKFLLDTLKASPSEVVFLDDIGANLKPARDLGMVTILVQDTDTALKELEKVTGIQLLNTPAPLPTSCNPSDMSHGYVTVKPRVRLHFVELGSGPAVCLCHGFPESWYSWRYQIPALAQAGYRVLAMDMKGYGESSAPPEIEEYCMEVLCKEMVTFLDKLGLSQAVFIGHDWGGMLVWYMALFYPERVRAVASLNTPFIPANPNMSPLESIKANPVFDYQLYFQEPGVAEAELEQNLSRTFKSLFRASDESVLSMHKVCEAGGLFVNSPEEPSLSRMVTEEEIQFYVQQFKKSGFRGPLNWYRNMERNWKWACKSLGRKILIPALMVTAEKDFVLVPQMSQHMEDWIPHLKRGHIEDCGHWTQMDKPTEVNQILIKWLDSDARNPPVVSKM", "assay": "Human soluble epoxide hydrolase inhibition"}, "[19]": {"target": "D(1A) dopamine receptor (Homo sapiens) (UniProt P21728)", "conditions": "Compound concentration 10.0 uM"}, "[20]": {"target": "Muscarinic acetylcholine receptor M5 (Homo sapiens) (UniProt P08912)", "sequence (P08912 whole entry)": "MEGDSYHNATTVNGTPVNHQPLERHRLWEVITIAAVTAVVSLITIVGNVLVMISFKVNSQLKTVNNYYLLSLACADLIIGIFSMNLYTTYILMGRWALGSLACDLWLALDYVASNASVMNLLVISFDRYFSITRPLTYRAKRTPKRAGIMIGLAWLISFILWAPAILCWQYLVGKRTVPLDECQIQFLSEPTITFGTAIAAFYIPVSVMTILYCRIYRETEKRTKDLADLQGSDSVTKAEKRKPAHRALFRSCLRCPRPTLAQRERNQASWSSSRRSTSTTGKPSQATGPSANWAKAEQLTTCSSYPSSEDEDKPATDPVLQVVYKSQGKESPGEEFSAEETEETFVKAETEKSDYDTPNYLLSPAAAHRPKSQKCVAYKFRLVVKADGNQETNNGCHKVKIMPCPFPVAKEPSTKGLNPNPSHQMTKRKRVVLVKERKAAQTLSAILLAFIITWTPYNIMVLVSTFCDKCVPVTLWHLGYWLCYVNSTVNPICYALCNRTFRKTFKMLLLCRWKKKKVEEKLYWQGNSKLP", "conditions": "Compound concentration 10.0 uM"}, "[21]": {"target": "GABA-A receptor; anion channel (Rattus norvegicus) (UniProt O09028+P15431+P18506+P18508+P19969+P20236+P23574+P23576+P28471+P28473+P30191+P62813+P63079+P63138+Q91ZM7+Q9ES14)", "conditions": "Compound concentration 10.0 uM"}, "[22]": {"target": "5-hydroxytryptamine receptor 1A (Homo sapiens) (UniProt P08908)", "sequence (P08908 whole entry)": "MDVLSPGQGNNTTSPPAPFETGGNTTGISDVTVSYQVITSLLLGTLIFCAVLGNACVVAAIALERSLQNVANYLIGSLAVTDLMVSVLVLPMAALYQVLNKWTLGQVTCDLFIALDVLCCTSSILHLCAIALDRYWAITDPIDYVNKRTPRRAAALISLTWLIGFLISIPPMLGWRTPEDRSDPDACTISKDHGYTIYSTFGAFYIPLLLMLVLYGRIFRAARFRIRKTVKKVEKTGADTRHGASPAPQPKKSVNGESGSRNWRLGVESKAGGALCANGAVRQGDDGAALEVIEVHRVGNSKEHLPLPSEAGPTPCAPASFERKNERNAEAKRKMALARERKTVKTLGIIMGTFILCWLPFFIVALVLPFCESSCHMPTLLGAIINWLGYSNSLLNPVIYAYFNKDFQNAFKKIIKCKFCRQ", "conditions": "Compound concentration 10.0 uM"}, "[23]": {"target": "Histamine H4 receptor (Homo sapiens) (UniProt Q9H3N8)", "sequence (Q9H3N8 whole entry)": "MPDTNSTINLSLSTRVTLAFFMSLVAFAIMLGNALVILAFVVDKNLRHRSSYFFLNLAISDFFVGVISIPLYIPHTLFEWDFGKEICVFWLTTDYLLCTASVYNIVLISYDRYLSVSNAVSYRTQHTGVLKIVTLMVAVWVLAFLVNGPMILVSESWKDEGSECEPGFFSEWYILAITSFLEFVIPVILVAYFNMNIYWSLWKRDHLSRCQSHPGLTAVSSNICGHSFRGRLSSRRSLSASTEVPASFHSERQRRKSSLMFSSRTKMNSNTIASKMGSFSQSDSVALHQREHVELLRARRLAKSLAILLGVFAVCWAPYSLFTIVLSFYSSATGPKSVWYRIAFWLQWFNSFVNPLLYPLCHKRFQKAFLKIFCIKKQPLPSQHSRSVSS", "conditions": "Compound concentration 10.0 uM"}, "[24]": {"target": "Alpha-2A adrenergic receptor (Homo sapiens) (UniProt P08913)", "conditions": "Compound concentration 10.0 uM"}, "[25]": {"target": "Sigma intracellular receptor 2 (Homo sapiens) (UniProt Q5BJF2)", "sequence (Q5BJF2 whole entry)": "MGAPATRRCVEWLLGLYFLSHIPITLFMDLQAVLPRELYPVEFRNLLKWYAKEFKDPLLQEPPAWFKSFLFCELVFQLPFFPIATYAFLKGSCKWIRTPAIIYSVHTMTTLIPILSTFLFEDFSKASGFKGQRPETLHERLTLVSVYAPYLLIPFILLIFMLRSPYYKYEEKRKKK", "conditions": "Compound concentration 10.0 uM"}, "[26]": {"target": "5-hydroxytryptamine receptor 2A (Homo sapiens) (UniProt P28223)", "conditions": "Compound concentration 10.0 uM"}, "[27]": {"target": "Beta-2 adrenergic receptor (Homo sapiens) (UniProt P07550)", "sequence (P07550 whole entry, looked up)": "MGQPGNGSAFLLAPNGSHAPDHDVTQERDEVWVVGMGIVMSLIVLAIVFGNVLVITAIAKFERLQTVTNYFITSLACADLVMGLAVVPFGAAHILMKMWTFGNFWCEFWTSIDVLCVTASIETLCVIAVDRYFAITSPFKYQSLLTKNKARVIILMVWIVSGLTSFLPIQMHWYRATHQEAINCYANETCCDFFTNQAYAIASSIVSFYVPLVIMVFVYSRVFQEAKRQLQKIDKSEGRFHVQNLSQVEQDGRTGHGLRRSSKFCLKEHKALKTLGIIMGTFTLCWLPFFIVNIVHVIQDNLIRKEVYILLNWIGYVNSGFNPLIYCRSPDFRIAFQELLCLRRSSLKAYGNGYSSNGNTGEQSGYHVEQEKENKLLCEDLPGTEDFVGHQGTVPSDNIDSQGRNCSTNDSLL", "conditions": "Compound concentration 10.0 uM"}, "[28]": {"target": "Muscarinic acetylcholine receptor M4 (Homo sapiens) (UniProt P08173)", "conditions": "Compound concentration 10.0 uM"}, "[29]": {"target": "Histamine H1 receptor (Homo sapiens) (UniProt P35367)", "conditions": "Compound concentration 10.0 uM"}, "[30]": {"target": "Alpha-2B adrenergic receptor (Homo sapiens) (UniProt P18089)", "conditions": "Compound concentration 10.0 uM"}, "[31]": {"target": "5-hydroxytryptamine receptor 5A (Homo sapiens) (UniProt P47898)", "conditions": "Compound concentration 10.0 uM"}, "[32]": {"target": "Muscarinic acetylcholine receptor M2 (Homo sapiens) (UniProt P08172)", "conditions": "Compound concentration 10.0 uM"}, "[33]": {"target": "5-hydroxytryptamine receptor 7 (Homo sapiens) (UniProt P34969)", "conditions": "Compound concentration 10.0 uM"}, "[34]": {"target": "5-hydroxytryptamine receptor 1B (Homo sapiens) (UniProt P28222)", "conditions": "Compound concentration 10.0 uM"}, "[35]": {"target": "5-hydroxytryptamine receptor 2B (Homo sapiens) (UniProt P41595)", "conditions": "Compound concentration 10.0 uM"}, "[36]": {"target": "Beta-1 adrenergic receptor (Homo sapiens) (UniProt P08588)", "conditions": "Compound concentration 10.0 uM"}, "[37]": {"target": "5-hydroxytryptamine receptor 1D (Homo sapiens) (UniProt P28221)", "sequence (P28221 whole entry)": "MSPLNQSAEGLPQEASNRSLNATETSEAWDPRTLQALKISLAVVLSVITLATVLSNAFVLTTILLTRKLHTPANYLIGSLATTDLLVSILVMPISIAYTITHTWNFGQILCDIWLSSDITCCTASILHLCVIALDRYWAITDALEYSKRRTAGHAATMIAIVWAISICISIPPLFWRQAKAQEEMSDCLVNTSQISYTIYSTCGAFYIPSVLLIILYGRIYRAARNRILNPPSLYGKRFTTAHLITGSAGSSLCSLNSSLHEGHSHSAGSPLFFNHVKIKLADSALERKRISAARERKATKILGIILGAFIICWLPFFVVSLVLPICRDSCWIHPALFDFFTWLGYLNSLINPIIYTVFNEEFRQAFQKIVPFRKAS", "conditions": "Compound concentration 10.0 uM"}, "[38]": {"target": "Alpha-1B adrenergic receptor (Homo sapiens) (UniProt P35368)", "conditions": "Compound concentration 10.0 uM"}, "[39]": {"target": "D(2) dopamine receptor (Homo sapiens) (UniProt P14416)", "conditions": "Compound concentration 10.0 uM"}, "[40]": {"target": "Sodium-dependent serotonin transporter (Homo sapiens) (UniProt P31645)", "conditions": "Compound concentration 10.0 uM"}, "[41]": {"target": "Alpha-2C adrenergic receptor (Homo sapiens) (UniProt P18825)", "conditions": "Compound concentration 10.0 uM"}}, "data": [{"smiles": "O=C(Nc1ccc(-n2nc(-c3cccnc3)cc2C(F)(F)F)cn1)c1ccc(-c2ccccc2)c(F)c1", "note": "[BI 2049]", "values": [{"measurement": "inhibition", "setting": "[1]", "value": -1.54, "unit": "%"}, {"measurement": "inhibition", "setting": "[2]", "value": 15, "unit": "%"}, {"measurement": "inhibition", "setting": "[3]", "value": -4.45, "unit": "%"}, {"measurement": "inhibition", "setting": "[4]", "value": -9.35, "unit": "%"}, {"measurement": "pKi", "setting": "[5]", "value": "< 5"}, {"measurement": "Ki", "setting": "[5]; read-out: Ki", "value": "> 10", "unit": "µM"}, {"measurement": "inhibition", "setting": "[6]", "value": 18.3, "unit": "%"}, {"measurement": "inhibition", "setting": "[7]", "value": -0.78, "unit": "%"}, {"measurement": "inhibition", "setting": "[8]", "value": 8.38, "unit": "%"}, {"measurement": "inhibition", "setting": "[9]", "value": -8.89, "unit": "%"}, {"measurement": "inhibition", "setting": "[10]", "value": -5.62, "unit": "%"}, {"measurement": "inhibition", "setting": "[11]", "value": 13.8, "unit": "%"}, {"measurement": "inhibition", "setting": "[12]", "value": 25.5, "unit": "%"}, {"measurement": "inhibition", "setting": "[13]", "value": 7.17, "unit": "%"}, {"measurement": "inhibition", "setting": "[14]", "value": 1.9, "unit": "%"}, {"measurement": "inhibition", "setting": "[15]", "value": 3.71, "unit": "%"}, {"measurement": "inhibition", "setting": "[16]", "value": 68.2, "unit": "%"}, {"measurement": "inhibition", "setting": "[17]", "value": 3.77, "unit": "%"}, {"measurement": "IC50", "setting": "[18]", "value": "> 3 µM (not active)"}, {"measurement": "inhibition", "setting": "[19]", "value": 4.32, "unit": "%"}, {"measurement": "inhibition", "setting": "[20]", "value": 0.37, "unit": "%"}, {"measurement": "inhibition", "setting": "[21]", "value": 16.1, "unit": "%"}, {"measurement": "inhibition", "setting": "[22]", "value": -3.06, "unit": "%"}, {"measurement": "inhibition", "setting": "[23]", "value": -9.32, "unit": "%"}, {"measurement": "inhibition", "setting": "[24]", "value": 8.3, "unit": "%"}, {"measurement": "inhibition", "setting": "[25]", "value": 30.1, "unit": "%"}, {"measurement": "inhibition", "setting": "[26]", "value": -1.62, "unit": "%"}, {"measurement": "inhibition", "setting": "[27]", "value": 5.14, "unit": "%"}, {"measurement": "inhibition", "setting": "[28]", "value": 0.8, "unit": "%"}, {"measurement": "inhibition", "setting": "[29]", "value": 3.07, "unit": "%"}, {"measurement": "inhibition", "setting": "[30]", "value": 1.26, "unit": "%"}, {"measurement": "inhibition", "setting": "[31]", "value": -2.92, "unit": "%"}, {"measurement": "inhibition", "setting": "[32]", "value": 9.94, "unit": "%"}, {"measurement": "inhibition", "setting": "[33]", "value": 6.21, "unit": "%"}, {"measurement": "inhibition", "setting": "[34]", "value": -0.85, "unit": "%"}, {"measurement": "inhibition", "setting": "[35]", "value": 9.91, "unit": "%"}, {"measurement": "inhibition", "setting": "[36]", "value": 0.23, "unit": "%"}, {"measurement": "inhibition", "setting": "[37]", "value": -9.83, "unit": "%"}, {"measurement": "inhibition", "setting": "[38]", "value": -3.49, "unit": "%"}, {"measurement": "inhibition", "setting": "[39]", "value": -9.24, "unit": "%"}, {"measurement": "inhibition", "setting": "[40]", "value": 9.16, "unit": "%"}, {"measurement": "inhibition", "setting": "[41]", "value": 6.33, "unit": "%"}]}]}
